Measured values: the supplement of paper PMC10307832

Columns and labels:
Assay in all cases: relative viability (nuclei count vs DMSO), 5 days (fraction); higher = more cells survive
Sulindac + Trametinib = compound: CC1=C(CC(=O)O)c2cc(F)ccc2/C1=C\c1ccc([S+](C)[O-])cc1 [Sulindac] + CC(=O)Nc1cccc(-n2c(=O)n(C3CC3)c(=O)c3c(Nc4ccc(I)cc4F)n(C)c(=O)c(C)c32)c1 [Trametinib] (partner 0.02 µM)
Outline: (§1)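 Relative viability was taken as the ratio of nuclei in treated wells to nuclei in vehicle wells. Lung cancer cell lines in 1536-well plates received compounds by pin tool one day after seeding, either one drug alone or a fixed anchor-drug dose plus five library-drug doses (not always all listed) in √10 steps. Nuclei were counted on 4× images after 5 days of treatment, and values are medians of duplicate plates.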

Sulindac + Tozasertib = compound: CC1=C(CC(=O)O)c2cc(F)ccc2/C1=C\c1ccc([S+](C)[O-])cc1 [Sulindac] + Cc1cc(Nc2cc(N3CCN(C)CC3)nc(Sc3ccc(NC(=O)C4CC4)cc3)n2)n[nH]1 [Tozasertib] (partner 0.1 µM)
Outline: as §1

Sulindac + Foretinib = compound: CC1=C(CC(=O)O)c2cc(F)ccc2/C1=C\c1ccc([S+](C)[O-])cc1 [Sulindac] + COc1cc2c(Oc3ccc(NC(=O)C4(C(=O)Nc5ccc(F)cc5)CC4)cc3F)ccnc2cc1OCCCN1CCOCC1 [Foretinib] (partner 0.25 µM)
Outline: as §1

[1] = compound: O=c1[nH]cc(F)c(=O)[nH]1 [5-Fluorouracil] + COc1cc2c(Oc3ccc(NC(=O)C4(C(=O)Nc5ccc(F)cc5)CC4)cc3F)ccnc2cc1OCCCN1CCOCC1 [Foretinib] (partner 0.25 µM)
Outline: as §1

Row | Cell Line | relative viability (Sulindac + Trametinib; first compound 0.08 µM) | relative viability (Sulindac + Trametinib; first compound 0.253 µM) | relative viability (Sulindac + Trametinib; first compound 0.8 µM) | relative viability (Sulindac + Trametinib; first compound 2.53 µM) | relative viability (Sulindac + Trametinib; first compound 8 µM) | relative viability (Sulindac + Tozasertib; first compound 0.08 µM) | relative viability (Sulindac + Tozasertib; first compound 0.253 µM) | relative viability (Sulindac + Tozasertib; first compound 2.53 µM) | relative viability (Sulindac + Tozasertib; first compound 8 µM) | relative viability (Sulindac + Foretinib; first compound 0.08 µM) | relative viability (Sulindac + Foretinib; first compound 0.253 µM) | relative viability (Sulindac + Foretinib; first compound 0.8 µM) | relative viability (Sulindac + Foretinib; first compound 2.53 µM) | relative viability (Sulindac + Foretinib; first compound 8 µM) | relative viability ([1]; first compound 0.02 µM) | relative viability ([1]; first compound 0.2 µM) | relative viability ([1]; first compound 0.6325 µM) | relative viability ([1]; first compound 2 µM) | relative viability (Sulindac + Tozasertib; first compound 0.8 µM)
1 | NCI-H2347 | 0.279 | 0.272 | 0.297 | 0.258 | 0.271 | 0.522 | 0.615 | 0.528 | 0.598 | 1.08 | 0.562 | 0.645 | 1.26 | 0.807 | 0.689 | 0.822 | 0.453 | 0.513 | 
2 | NCI-H522 | 0.628 | 0.75 | 0.547 | 0.747 | 0.734 | 0.676 | 0.643 | 0.502 | 0.575 |  |  |  |  |  |  |  |  |  | 0.541
3 | NCI-H1437 | 0.644 | 0.568 | 0.461 | 0.515 | 0.525 | 0.438 | 0.434 | 0.397 | 0.429 | 1.33 | 1.23 | 1 | 1.28 | 1.42 | 0.687 | 0.359 | 0.273 | 0.225 | 0.32
4 | SK-MES-1 | 0.563 | 0.555 | 0.538 | 0.561 | 0.579 | 1.07 | 1.01 | 0.956 | 1.09 | 1.13 | 1.38 | 0.372 | 0.88 | 1.02 | 0.872 | 0.946 | 0.45 | 0.358 | 0.848
5 | NCI-H3122 | 0.222 | 0.243 | 0.203 | 0.214 | 0.267 | 0.4 | 0.469 | 0.352 | 0.466 | 1.06 | 0.936 | 1.01 | 1.01 | 0.981 | 0.956 | 0.721 | 0.363 | 0.218 | 0.377
6 | NCI-H1299 |  |  |  |  |  |  |  |  |  | 1.13 | 1.09 | 1.06 | 1.02 | 1.15 | 1.14 | 1.12 | 1.08 | 0.908 | 
7 | NCI-H1563 |  |  |  |  |  |  |  |  |  | 0.98 | 1.02 | 0.912 | 0.89 | 0.99 | 0.927 | 0.909 | 0.862 | 0.761 | 
8 | Calu-6 |  |  |  |  |  |  |  |  |  | 1.02 | 0.916 | 0.846 | 0.893 | 1.08 | 0.853 | 0.941 | 0.871 | 0.491 | 
9 | EBC-1 |  |  |  |  |  |  |  |  |  | 0.0937 | 0.0935 |  | 0.107 | 0.105 | 0.101 | 0.106 | 0.0923 | 0.108 | 
10 | NCI-H1648 | 0.379 | 0.414 |  | 0.473 | 0.422 | 0.397 | 0.482 | 0.415 | 0.389 |  |  |  |  |  |  |  |  |  | 0.345
11 | NCI-H1703 |  |  |  |  |  |  |  |  |  | 0.276 | 0.389 | 0.355 | 0.382 | 0.377 | 0.341 | 0.383 | 0.341 | 0.348 | 
12 | HCC-44 | 1.11 | 1.13 | 0.969 | 1.26 | 1.02 | 1.08 | 1.04 | 0.938 | 0.981 |  |  |  |  |  |  |  |  |  | 
13 | A549 |  |  |  |  |  |  |  |  |  | 1.04 | 1.12 | 0.653 | 0.975 | 1.12 | 0.992 | 0.945 | 0.517 | 0.156 | 
